Results: US20250163038A1, “CBL-B MODULATORS AND USES THEREOF” (Nimbus Clio, Inc., priority 2021, published 2025)

What was measured:
[1] = target: Recombinant human Cbl-b (aa 36-427) (Homo sapiens, UniProt Q13191); test: Cbl-b Biochemical Assay (TR-FRET); settings: read-out: TR-FRET hCbl-b IC50
[2] = test system: Jurkat (clone E6-1) cells with NFAT luciferase reporter; test: Jurkat reporter assay (NFAT Luciferase); assay type: cell-based; settings: Homo sapiens; Jurkat NFAT luciferase reporter cells, anti-CD3 stimulation, 6 hr; read-out: Jurkat NFAT EC50
[3] = target: T1, Recombinant human c-Cbl (aa 47-435) (Homo sapiens, UniProt P22681); test: c-Cbl Biochemical Assay (TR-FRET); settings: hc-Cbl Biochemical Assay (TR-FRET); read-out: TR-FRET hcCbl IC50
T1 sequence (P22681 47-435): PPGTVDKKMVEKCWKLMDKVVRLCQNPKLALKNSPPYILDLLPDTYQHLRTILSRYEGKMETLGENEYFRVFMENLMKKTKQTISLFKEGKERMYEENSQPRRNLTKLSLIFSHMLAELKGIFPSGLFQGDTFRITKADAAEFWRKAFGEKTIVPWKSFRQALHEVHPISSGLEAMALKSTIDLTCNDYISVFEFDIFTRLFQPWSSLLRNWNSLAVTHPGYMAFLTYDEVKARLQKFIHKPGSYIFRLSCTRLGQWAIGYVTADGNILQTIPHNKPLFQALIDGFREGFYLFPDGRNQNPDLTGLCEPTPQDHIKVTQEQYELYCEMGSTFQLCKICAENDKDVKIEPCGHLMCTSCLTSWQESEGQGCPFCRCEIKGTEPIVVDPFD

Chain of Recombinant human Cbl-b (aa 36-427) (Q13191 36-427): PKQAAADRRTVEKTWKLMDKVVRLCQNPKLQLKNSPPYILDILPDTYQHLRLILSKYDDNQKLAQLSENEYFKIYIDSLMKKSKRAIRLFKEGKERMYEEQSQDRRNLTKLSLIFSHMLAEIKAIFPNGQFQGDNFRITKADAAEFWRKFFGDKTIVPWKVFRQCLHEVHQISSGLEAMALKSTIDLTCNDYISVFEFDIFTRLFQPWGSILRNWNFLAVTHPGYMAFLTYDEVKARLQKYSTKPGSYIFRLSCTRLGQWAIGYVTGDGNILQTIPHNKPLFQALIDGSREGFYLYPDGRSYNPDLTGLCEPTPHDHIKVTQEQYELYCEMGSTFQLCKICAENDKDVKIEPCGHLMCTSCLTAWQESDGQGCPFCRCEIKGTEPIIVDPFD

| IC50 [1] | EC50 [2] | IC50 [3] | SMILES |
| --- | --- | --- | --- |
| < 0.2 µM | 0.2 to 1 µM | 1 to 10 µM | Cn1cnnc1-c1cc(F)ccc1-c1cccc(-c2nc3cc(CN4CC(C)(O)C4)cc(C(F)(F)F)c3o2)c1 [AF-2, 1-((2-(4′-Fluoro-2′-(4-methyl-4H-1,2,4-triazol-3-yl)-[1,1′-biphenyl]-3-yl)-7-(trifluoromethyl)benzo[d]oxazol-5-yl)methyl)-3-methylazetidin-3-ol] |
| < 0.2 µM | 0.2 to 1 µM | < 0.2 µM | COc1cc(CN(C)[C@@H]2CCC[C@@H]2O)cc2nc(-c3cccc(-c4ccc(F)cc4-c4nncn4C)c3)oc12 [HT-3, (1S,2R)-2-(((2-(4′-Fluoro-2′-(4-methyl-4H-1,2,4-triazol-3-yl)-[1,1′-biphenyl]-3-yl)-7-methoxybenzo[d]oxazol-5-yl)methyl)(methyl)amino)cyclopentan-1-ol] |
| < 0.2 µM | 0.2 to 1 µM | < 0.2 µM | CO[C@H]1CCCC1NCc1cc(C(F)(F)F)c2oc(-c3cccc(-c4ccc(F)cc4-c4nncn4C)c3)nc2c1 (stereo in doubt) [CV-2, (1S,2S)—N-((2-(4′-Fluoro-2′-(4-methyl-4H-1,2,4-triazol-3-yl)-[1,1′-biphenyl]-3-yl)-7-(trifluoromethyl)benzo[d]oxazol-5-yl)methyl)-2-methoxycyclopentan-1-amine] |
| < 0.2 µM | < 0.2 µM | < 0.2 µM | Cn1cnnc1-c1cc(F)ccc1-c1cccc(-c2nc3cc(CNCC4CCC4)cc(C(F)(F)F)c3o2)c1 [EM-2, 1-Cyclobutyl-N-((2-(4′-fluoro-2′-(4-methyl-4H-1,2,4-triazol-3-yl)-[1,1′-biphenyl]-3-yl)-7-(trifluoromethyl)benzo[d]oxazol-5-yl)methyl)methanamine] |
| < 0.2 µM | < 0.2 µM | < 0.2 µM | Cn1cnnc1-c1cc(F)ccc1-c1cccc(-c2nc3cc(CNCC4CCC4)cc(C4CC4)c3o2)c1 [FT-1, 1-Cyclobutyl-N-((7-cyclopropyl-2-(4′-fluoro-2′-(4-methyl-4H-1,2,4-triazol-3-yl)-[1,1′-biphenyl]-3-yl)benzo[d]oxazol-5-yl)methyl)methanamine] |
| < 0.2 µM | < 0.2 µM | < 0.2 µM | Cn1cnnc1-c1cc(F)ccc1-c1cccc(-c2nc3cc(CN[C@@H]4CCC[C@@H]4O)cc(C(C)(F)F)c3o2)c1 [FJ-2, (1S,2R)-2-(((7-(1,1-Difluoroethyl)-2-(4′-fluoro-2′-(4-methyl-4H-1,2,4-triazol-3-yl)-[1,1′-biphenyl]-3-yl)benzo[d]oxazol-5-yl)methyl)amino)cyclopentan-1-ol] |

Continued, molecule first:

| SMILES | IC50 [1] | EC50 [2] | IC50 [3] |
| --- | --- | --- | --- |
| Cn1cnnc1-c1cc(F)ccc1-c1cccc(-c2nc3cc(CNCC4(C#N)CCCC4)cc(C(F)(F)F)c3[nH]2)c1 [CS-1, 1-((((2-(4′-Fluoro-2′-(4-methyl-4H-1,2,4-triazol-3-yl)-[1,1′-biphenyl]-3-yl)-7-(trifluoromethyl)-1H-benzo[d]imidazol-5-yl)methyl)amino)methyl)cyclopentane-1-carbonitrile] | < 0.2 µM | 0.2 to 1 µM | < 0.2 µM |
| Cc1cc([C@H](C)NCC2CCC2)cc2nc(-c3cc(-c4ccc(F)cc4-c4nncn4C)cc(C4CC4)n3)oc12 [AGX-1, (cyclobutylmethyl)[(1S)-1-(2-{6-cyclopropyl-4-[4-fluoro-2-(4-methyl-1,2,4-triazol-3-yl)phenyl]pyridin-2-yl}-7-methyl-1,3-benzoxazol-5-yl)ethyl]amine] | < 0.2 µM | < 0.2 µM | < 0.2 µM |
| COC[C@H](C)NCc1cc(C)c2oc(-c3cccc(-c4ccc(F)cc4-c4nncn4C)c3)nc2c1 [AGS-4, ({2-[4′-Fluoro-2′-(4-methyl-1,2,4-triazol-3-yl)-[1,1′-biphenyl]-3-yl]-7-methyl-1,3-benzoxazol-5-yl}methyl)[(2S)-1-methoxypropan-2-yl]amine] | < 0.2 µM | < 0.2 µM | < 0.2 µM |
| COCCCNCc1cc(C(F)(F)F)c2oc(-c3cccc(-c4ccc(F)cc4-c4nncn4C)c3)nc2c1 [EE-2, N-((2-(4′-Fluoro-2′-(4-methyl-4H-1,2,4-triazol-3-yl)-[1,1′-biphenyl]-3-yl)-7-(trifluoromethyl)benzo[d]oxazol-5-yl)methyl)-3-methoxypropan-1-amine] | < 0.2 µM | < 0.2 µM | < 0.2 µM |
| Cc1cc(CN[C@@H]2CCC[C@@H]2O)cc2nc(-c3cc(-c4ccc(F)cc4-c4nncn4C)cc(C4CC4)n3)oc12 [AEU-2, (1S,2R)-2-{[(2-{6-Cyclopropyl-4-[4-fluoro-2-(4-methyl-1,2,4-triazol-3-yl)phenyl]pyridin-2-yl}-7-methyl-1,3-benzoxazol-5-yl)methyl]amino}cyclopentan-1-ol] | < 0.2 µM | < 0.2 µM | < 0.2 µM |
| COCCN(C)Cc1cc(OC)c2oc(-c3cccc(-c4ccc(F)cc4-c4nncn4C)c3)nc2c1 [GM-2, N-((2-(4′-Fluoro-2′-(4-methyl-4H-1,2,4-triazol-3-yl)-[1,1′-biphenyl]-3-yl)-7-methoxybenzo[d]oxazol-5-yl)methyl)-2-methoxy-N-methylethan-1-amine] | 0.2 to 1 µM | 10 to 50 µM | 1 to 10 µM |
| CN(C)C(=O)CNCc1cc(C(F)(F)F)c2oc(-c3cccc(-c4ccc(F)cc4-c4nncn4C)c3)nc2c1 [EI-4, 2-(((2-(4′-Fluoro-2′-(4-methyl-4H-1,2,4-triazol-3-yl)-[1,1′-biphenyl]-3-yl)-7-(trifluoromethyl)benzo[d]oxazol-5-yl)methyl)amino)-N,N-dimethylacetamide] | < 0.2 µM | 0.2 to 1 µM | 0.2 to 1 µM |
| COc1cc(CO)cc2nc(-c3cc(-c4ccc(F)cc4-c4nncn4C)cc(C4CC4)n3)oc12 [AEX-2, (2-{6-Cyclopropyl-4-[4-fluoro-2-(4-methyl-1,2,4-triazol-3-yl)phenyl]pyridin-2-yl}-7-methoxy-1,3-benzoxazol-5-yl)methanol] | 0.2 to 1 µM | 1 to 10 µM | 1 to 10 µM |
| Cn1cnnc1-c1cc(F)ccc1-c1cccc(-c2nc3ccc(CN[C@@H]4CCC[C@@H]4O)cn3n2)c1 [GK-5, (1S,2R)-2-(((2-(4′-Fluoro-2′-(4-methyl-4H-1,2,4-triazol-3-yl)-[1,1′-biphenyl]-3-yl)-[1,2,4]triazolo[1,5-a]pyridin-6-yl)methyl)amino)cyclopentan-1-ol, Formic Acid] | < 0.2 µM | 1 to 10 µM | 0.2 to 1 µM |
| Cn1cnnc1-c1cc(F)ccc1-c1cc(-c2nc3cc(CO)ccc3o2)nc(C2CC2)c1 [ADQ-1, (2-{6-Cyclopropyl-4-[4-fluoro-2-(4-methyl-1,2,4-triazol-3-yl)phenyl]pyridin-2-yl}-1,3-benzoxazol-5-yl)MeOH] | 1 to 10 µM | 10 to 50 µM | 1 to 10 µM |
| C[C@H]1CCCN(Cc2cc(C(F)(F)F)c3oc(-c4cccc(-c5ccccc5-c5nncn5C)c4)nc3c2)C1 [Example Q-3, (S)-2-(2′-(4-Methyl-4H-1,2,4-triazol-3-yl)-[1,1′-biphenyl]-3-yl)-5-((3-methylpiperidin-1-yl)methyl)-7-(trifluoromethyl)benzo[d]oxazole] | 0.2 to 1 µM | 1 to 10 µM | 1 to 10 µM |
| Cn1cnnc1-c1cc(F)ccc1-c1cccc(-c2nc3cc(CNCC(C)(C)O)c(F)c(F)c3o2)c1 [JD-1, 1-(((6,7-Difluoro-2-(4′-fluoro-2′-(4-methyl-4H-1,2,4-triazol-3-yl)-[1,1′-biphenyl]-3-yl)benzo[d]oxazol-5-yl)methyl)amino)-2-methylpropan-2-ol] | < 0.2 µM | < 0.2 µM | < 0.2 µM |
